Experimental findings from patent publication US11660351B2, “Antibody drug conjugates (ADCs) having enzymatically cleavable groups” (Bayer Pharma Aktiengesellschaft, priority 2016, dated 2023) are described below.

In one series the test system is SK-HEP-1. Nature of the series: Cytotoxic effect, MTT assay, SK-HEP-1 cells. In kind it is cell-based. The conditions noted are these: Homo sapiens, SK-HEP1; Table 2, metabolites. (Formazan colour is commonly taken as a measure of viable cells.)
The test system of a further series is NCI-H292. Nature of the series: Cytotoxic effect, MTT assay, NCI-H292 cells. The conditions noted are these: Homo sapiens, Table 2, metabolites. In kind it is cell-based.
Another series has as its system Caco-2 cells. Nature of the series: Caco-2 flux assay for cell permeability. In kind it is in vitro ADME. To be noted: Caco-2, 2 h incubation. The protocol: The cell permeability of a substance can be investigated by means of in vitro testing in a flux assay using Caco-2 cells [M. D. Troutman and D. R. Thakker, Pharm. […] For this purpose, the cells were cultured for 15-16 days on 24-well filter plates. For the determination of permeation, the respective test substance was applied in a HEPES buffer to the cells either apically (A) or basally (B) and incubated for 2 hours. After 0 hours and after 2 hours, samples were taken from the cis and trans compartments. The samples were separated by HPLC (Agilent 1200, Böblingen, Germany) using reverse phase columns. The HPLC system was coupled via a Turbo Ion Spray Interface to a Triple Quadropole mass spectrometer API 4000 (AB SCIEX Deutschland GmbH, Darmstadt, Germany).
A general note: Caco-2 cells form a polarised layer with tight junctions and transporters.

A further series concerns MOLM-13. The experiment in a line: Cytotoxic effect, MTT assay, MOLM-13 cells. The class given is cell-based. The conditions noted are these: Homo sapiens, Table 2, metabolites. The protocol:
(§1) After 48 h, the medium was replaced. […] The suspension cells were counted and sown into a 96-well culture plate with white bottom (from Costar #3610) (#3610) (MOLM-13: 2000 cells/well; NB4: 7000 cells/well; MV-4-11: 5000 cells/well in a total volume of 100 μl). After 6 hours of incubation at 37° C. and 5% carbon dioxide, the medium was changed and the antibody-drug conjugates or metabolites were added by pipette in 10 μl of culture medium in concentrations of 10^−5M to 10^−13M to the cells (triplicates) in 90 μl. […] After 96 h, the cell proliferation was detected using the MTT assay (ATCC, Manassas, Va., USA, catalogue No. 30-1010K). To this end, the MTT reagent was incubated with the cells for 4 h, followed by lysis of the cells overnight by addition of the detergent. The dye formed was detected at 570 nm (Infinite M1000 pro, Tecan). The measured data were used to calculate the IC50 of the growth inhibition using the DRC (dose response curve). The proliferation of cells which were not treated with test substance but were otherwise identically treated was defined as the 100% figure.

Another series deals with KPL-4. The experiment in a line: Cytotoxic effect, MTT assay, KPL-4 cells. The class given is cell-based. The conditions noted are these: Homo sapiens, KPL4; Table 2, metabolites. Here is the method: as §1, with “μl).” for “μl). After 6 hours of incubation at 37° C. and 5% carbon dioxide, the medium was changed and the antibody-drug conjugates or metabolites were added by pipette in 10 μl of culture medium in concentrations of 10^−5M to 10^−13M to the cells (triplicates) in 90 μl.”

The target in a further series is T1, legumain (Homo sapiens, UniProt Q99538).
T1 construct: purchased R&D Systems 2199-CY
T1 sequence (Q99538 18-323 limits assumed): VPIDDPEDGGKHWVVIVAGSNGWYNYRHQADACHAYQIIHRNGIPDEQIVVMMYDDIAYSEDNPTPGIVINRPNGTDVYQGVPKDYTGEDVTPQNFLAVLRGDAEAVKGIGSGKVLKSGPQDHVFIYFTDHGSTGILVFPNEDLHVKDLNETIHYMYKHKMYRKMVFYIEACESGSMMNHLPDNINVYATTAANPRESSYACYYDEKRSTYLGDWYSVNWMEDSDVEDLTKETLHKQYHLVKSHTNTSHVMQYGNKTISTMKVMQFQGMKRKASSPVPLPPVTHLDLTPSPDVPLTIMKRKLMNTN
Nature of the series: Legumain assay (enzymatic cleavage). The class given is biochemical. The conditions noted are these: recombinant human legumain, rhLegumain 1 ng/μl, substrate 3 μM, pH 5.0, read-out: half-life of legumain-mediated cleavage to the target compound (converted). The protocol: The legumain assay was conducted with recombinant human enzyme. The rhlegumain enzyme solution (catalogue #2199-CY, R&D Systems) was diluted in 50 mM Na acetate buffer/100 mM NaCl, pH 4.0 to the desired concentration and preincubated at 37° C. for 2 h. rhLegumain was then adjusted to a final concentration of 1 ng/μl in 50 mM MES buffer, 250 mM NaCl, pH 5.0. For every legumain-cleavable prodrug to be examined, a mixture was made up in a micro reaction vessel (0.5 ml, from Eppendorf). For this purpose, the substrate solution was adjusted to the desired concentration (double concentration) with 50 mM MES buffer, 250 mM NaCl, pH 5.0. For the kinetic measurement of the enzymatic reaction, 250 μl of the legumain solution were first initially charged and the enzyme reaction was started by adding 250 μl of the substrate solution (final concentration: single concentration; 3 μM). At various points in time, 50 μl samples were taken. Immediately, 100 μl of ice-cold methanol were added to this sample in order to stop the enzymatic reaction, and the sample was then frozen at −20° C. The times selected for sampling were after 0.5 h, 1 h, 3 h and 24 h. The samples were then analysed by means of RP-HPLC analysis and by LC-MS analysis. The determination of the toxophore released enabled the determination of the half-life t1/2 of the enzymatic reaction. […]

In general, IC50 refers to the concentration that gives 50% inhibition. Usually half-life stands for the time in which the quantity being followed falls by half.

As to `CC(C)(C)[C@H](c1cc(-c2cc(F)ccc2F)cn1Cc1ccccc1)N(CC[C@H](N)C(=O)NCCC(=O)N[C@H](CCC(=O)O)C(=O)O)C(=O)CO` [Example M1, N-{(2S)-2-Amino-4-[{(1R)-1-[1-benzyl-4-(2,5-difluorophenyl)-1H-pyrrol-2-yl]-2,2-dimethylpropyl}(glycoloyl)amino]butanoyl}-beta-alanyl-D-glutamic acid], the figures for the IC50 in the series with SK-HEP-1 and in the series on NCI-H292 were 19.6 nM and 174 nM, respectively. In addition, the “Papp (B-A)” value with Caco-2 cells turned out to be 2.7 nm/s.
As to `CC(C)(C)[C@H](c1cc(-c2cc(F)ccc2F)cn1Cc1ccccc1)N(CCCN)C(=O)CO` [Reference Example R3M, N-(3-Aminopropyl)-N-{(1R)-1-[1-benzyl-4-(2,5-difluorophenyl)-1H-pyrrol-2-yl]-2,2-dimethylpropyl}-2-hydroxyacetamide], the IC50 in the series with MOLM-13 stood at 0.0669 nM; with SK-HEP-1 it was 7.62 nM; with KPL-4, 0.257 nM; in the series with NCI-H292, 0.27 nM.
As for `CNC(=O)[C@H](CCN(C(=O)CO)[C@@H](c1cc(-c2cc(F)ccc2F)cn1Cc1ccccc1)C(C)(C)C)NC(=O)[C@H](CC(N)=O)NC(=O)[C@H](C)NC(=O)[C@H](C)NC(=O)Cc1ccncc1` [Model compound A, N-(Pyridin-4-ylacetyl)-L-alanyl-L-alanyl-N^1-[(2S)-4-[{(1R)-1-[1-benzyl-4-(2,5-difluorophenyl)-1H-pyrrol-2-yl]-2,2-dimethylpropyl}(glycoloyl)amino]-1-(methylamino)-1-oxobutan-2-yl]-L-aspartamide], the half-life at 3 μM at legumain is 24 min.
